Results as given in US8383629B2, “Inhibitors of 11β-hydroxysteroid dehydrogenase type 1” (Vitae Pharmaceuticals, Inc., priority 2008, dated 2013).

Target: T1, human 11β-HSD1 (Homo sapiens, UniProt P28845)
T1 construct: expressed in transfected cells; host or cells: CHO cells (microsomes)
Assay: Inhibition of microsomal preparation of 11β-HSD1 (SPA, Biological Test Example 1)
Format: biochemical
Conditions: for IC50: microsomes from CHO cells overexpressing human 11β-HSD1, read-out: IC50 Range
Procedure, shortened: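 Microsomes from CHO cells overexpressing human 11β-HSD1 reduced [3H]cortisone (160 nM in substrate solution, with 2 mM NADPH, HEPES pH 7.4) for 90 min at rt after a 10 min compound preincubation. Compounds were run as 8-point half-log DMSO dilutions from 0.1 mM. 18β-glycyrrhetinic acid stopped the reaction, and anti-cortisol antibody SPA beads read [3H]cortisol.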

T1 sequence (P28845 whole entry): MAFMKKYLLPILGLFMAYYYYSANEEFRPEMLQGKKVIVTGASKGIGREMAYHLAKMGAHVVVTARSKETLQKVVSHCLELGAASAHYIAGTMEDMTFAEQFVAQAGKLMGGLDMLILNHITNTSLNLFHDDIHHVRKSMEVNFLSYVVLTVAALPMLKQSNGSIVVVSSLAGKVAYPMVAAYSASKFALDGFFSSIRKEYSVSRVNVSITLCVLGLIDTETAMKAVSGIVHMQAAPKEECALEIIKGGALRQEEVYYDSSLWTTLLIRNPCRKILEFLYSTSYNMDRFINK

inhibition at 0.111 µM (111 nM) [%] | IC50 [nM] | Average % inhibition at 100 nM (100 nM, 0.1 µM) [%] | inhibition at 0.1 µM (100 nM) [%] | Average % inhibition at 111 nM (111 nM, 0.111 µM) [%] | Compound
66.6 | < 100 |  |  |  | O=C(CCc1ccccc1C(F)(F)F)N1CCC2(CC1)CNCc1ccccc12 [EXAMPLE 59, 1-(2,3-dihydro-1H-spiro[isoquinoline-4,4′-piperidine]-1′-yl)-3-(2-(trifluoromethyl)phenyl)propan-1-one]
 | < 100 | 100.3 |  |  | O=C(O)CC1CC2(CCN(C(=O)/C=C/c3ccccc3C(F)(F)F)CC2)c2c(Br)cccc21 (single isomer, unassigned; isomer 2) [EXAMPLE 2.2, (E)-2-(7-bromo-1′-(3-(2-(trifluoromethyl)phenyl)acryloyl)-2,3-dihydrospiro[indene-1,4′-piperidine]-3-yl)acetic acid isomer 2]
 | < 100 |  | 95.7 | 99.2 | O=C(O)CC1CC2(CCN(C(=O)CCc3ccccc3C(F)(F)F)CC2)c2c(Br)cccc21 (single isomer, unassigned) [EXAMPLE 70.2]
79.3 | < 100 |  |  |  | O=C1Cc2ccccc2C2(CCN(C(=O)/C=C/c3ccccc3C(F)(F)F)CC2)N1 [EXAMPLE 42, (E)-1′-(3-(2-(trifluoromethyl)phenyl)acryloyl)-2H-spiro[isoquinoline-1,4′-piperidin]-3(4H)-one]
48.9 | 100 to 1000 |  |  |  | O=C(O)CC1CC2(CCN(C(=O)NCc3ccccc3N3CCCC3)CC2)c2c(Br)cccc21 (stereo not shown) [EXAMPLE 96, 2-(7-bromo-1′-(2-(pyrrolidin-1-yl)benzylcarbamoyl)-2,3-dihydrospiro[indene-1,4′-piperidine]-3-yl)acetic acid]
82.3 | < 100 |  |  |  | O=C1CC2(CCN(C(=O)OCc3ccccc3C(F)(F)F)CC2)c2c(Br)cccc21 [EXAMPLE 105, 2-(trifluoromethyl)benzyl 7-bromo-3-oxo-2,3-dihydrospiro[indene-1,4′-piperidine]-1′-carboxylate]
46.8 | 100 to 1000 |  |  |  | CN1C(=O)c2cccc(Cl)c2C12CCN(C(=O)NCc1ccccc1C(F)(F)F)CC2 [EXAMPLE 100, 7-chloro-2-methyl-3-oxo-N-(2-(trifluoromethyl)benzyl)spiro[isoindoline-1,4′-piperidine]-1′-carboxamide]
29 | < 100 |  |  |  | CC(C)(C)OC(=O)N1Cc2ccccc2C2(CCN(C(=O)/C=C/c3ccccc3C(F)(F)F)CC2)C1 [EXAMPLE 20, (E)-tert-butyl 1′-(3-(2-(trifluoromethyl)phenyl)acryloyl)-1H-spiro[isoquinoline-4,4′-piperidine]-2(3H)-carboxylate]
81.2 | < 100 |  |  |  | O=C1CC2(CCN(C(=O)/C=C/c3c(Cl)cccc3Cl)CC2)c2c(Br)cccc21 [EXAMPLE 17, (E)-7-bromo-1′-(3-(2,6-dichlorophenyl)acryloyl)spiro[indene-1,4′-piperidin]-3(2H)-one]
89.8 | < 100 |  |  |  | O=C1NC2(CCN(C(=O)/C=C/c3ccccc3C(F)(F)F)CC2)c2c(Cl)cccc21 [EXAMPLE 27, (E)-7-chloro-1′-(3-(2-(trifluoromethyl)phenyl)acryloyl)spiro[isoindoline-1,4′-piperidin]-3-one]
97.4 | < 100 |  |  |  | NC(=O)CC1CC2(CCN(C(=O)/C=C/c3ccccc3C(F)(F)F)CC2)c2c(Cl)cccc21 (racemic) [EXAMPLE 6, (±)-(E)-2-(7-chloro-1′-(3-(2-(trifluoromethyl)phenyl)acryloyl)-2,3-dihydrospiro[indene-1,4′-piperidine]-3-yl)acetamide]
93.9 | < 100 |  |  |  | O=C1NC2(CCN(C(=O)CCc3ccccc3C(F)(F)F)CC2)c2c(Br)cccc21 [EXAMPLE 71, 7-bromo-1′-(3-(2-(trifluoromethyl)phenyl)propanoyl)spiro[isoindoline-1,4′-piperidin]-3-one]
95.4 | < 100 |  | 96.6 |  | O=C(O)CC1CC2(CCN(C(=O)CCc3ccccc3C(F)(F)F)CC2)c2c(Cl)cccc21 (stereo not shown) [EXAMPLE 73, 2-(7-chloro-1′-(3-(2-(trifluoromethyl)phenyl)propanoyl)-2,3-dihydrospiro[indene-1,4′-piperidine]-3-yl)acetic acid]
48.2 | < 100 |  |  |  | CC(C)Oc1ccccc1CNC(=O)N1CCC2(CC1)CC(CC(=O)O)c1cccc(Br)c12 (stereo not shown) [EXAMPLE 98, 2-(7-bromo-1′-(2-isopropoxybenzylcarbamoyl)-2,3-dihydrospiro[indene-1,4′-piperidine]-3-yl)acetic acid]
75.1 | < 100 |  |  |  | O=C(O)CC1CC2(CCN(C(=O)/C=C/c3ccccc3C(F)(F)F)CC2)c2cc(F)ccc21 (racemic) [EXAMPLE 11, (±)-(E)-2-(6-fluoro-1′-(3-(2-(trifluoromethyl)phenyl)acryloyl)-2,3-dihydrospiro[indene-1,4′-piperidine]-3-yl)acetic acid]
87.4 | < 100 |  |  |  | O=C(/C=C/c1ccccc1C(F)(F)F)N1CCC2(CC1)CNCc1ccccc12 [EXAMPLE 21, (E)-1-(2,3-dihydro-1H-spiro[isoquinoline-4,4′-piperidine]-1′-yl)-3-(2-(trifluoromethyl)phenyl)prop-2-en-1-one]
61.2 | < 100 |  |  |  | CCOC(=O)CC1CC2(CCN(C(=O)NCc3c(C)cccc3Cl)CC2)c2c(Br)cccc21 (stereo not shown) [EXAMPLE 89, Ethyl 2-(7-bromo-1′-(2-chloro-6-methylbenzylcarbamoyl)-2,3-dihydrospiro[indene-1,4′-piperidine]-3-yl)acetate]
21.3 | 100 to 1000 |  |  |  | CNC(=O)c1ccc2c(c1)C1(CCN(C(=O)/C=C/c3ccccc3C(F)(F)F)CC1)C(=O)N2C [EXAMPLE 38, (E)-N,1-dimethyl-2-oxo-1′-(3-(2-(trifluoromethyl)phenyl)acryloyl)spiro[indoline-3,4′-piperidine]-5-carboxamide]
81.5 | < 100 |  |  |  | CNC(=O)N1Cc2ccccc2C2(CCN(C(=O)CCc3ccccc3C(F)(F)F)CC2)C1 [EXAMPLE 68, N-methyl-1′-(3-(2-(trifluoromethyl)phenyl)propanoyl)-1H-spiro[isoquinoline-4,4′-piperidine]-2(3H)-carboxamide]
93.8 | < 100 |  | 93.5 |  | CN1C(=O)C2(CCN(C(=O)CCc3ccccc3C(F)(F)F)CC2)c2ccccc21 [EXAMPLE 69, 1-methyl-1′-(3-(2-(trifluoromethyl)phenyl)propanoyl)spiro[indoline-3,4′-piperidin]-2-one]
94.8 | < 100 |  | 94.6 |  | NC(=O)CC1CC2(CCN(C(=O)/C=C/c3ccccc3C(F)(F)F)CC2)c2c(Br)cccc21 (racemic) [EXAMPLE 13, (±)-(E)-2-(7-bromo-1′-(3-(2-(trifluoromethyl)phenyl)acryloyl)-2,3-dihydrospiro[indene-1,4′-piperidine]-3-yl)acetamide]
